Where a name gives a salt, the structure may show the parent alone.
What was measured:
human LAT-1 [1] = target: T1, human LAT-1 (Homo sapiens (Human), UniProt Q01650); assay: Inhibition of [14C]L-leucine uptake into human LAT-1 stably expressing HEK293 cell line (uptake buffer, 1 min); format: cell-based; details: HEK293 human LAT-1 stably expressing cells; Na+-free HBSS pH7.4; [14C]L-leucine or alanine 1 μM, uptake 1 min; read-out: LAT-1 inhibitory activity/IC50
Excerpt: (§1) 1) LAT-1 Inhibitory Activity and LAT-2 Inhibitory Activity Inhibitory Effect on Uptake of Amino Acid into Human LAT-1 Stably Expressing Cell Line and LAT-2 Stably Expressing Cell Line
(§2) Expression vector each expressing a gene was inserted using Lipofectamine 2000 (Invitrogen) to cultured cell line HEK293 cell derived from human fetus renal cell. The resistant strains were selected using G418, and among them, the strains showing human LAT-1- or LAT-2-specific uptake of amino acid were established as stably expressing cell lines, respectively.
(§3) The above-mentioned stably expressing cells were plated on a 24-well collagen plate at 1.2×10^5 cells/well, and, after 48 hr, the cells were washed (×3) with uptake buffer ([…] Hank's balanced salt solution (HBSS) pH7.4) kept at 37° C. Each test compound (0.1, 1, 3, 10, 30, 100, 300 and 1000 μM) was added thereto, and the mixture was kept at 37° C. for 3 min. [^14C]L-leucine or alanine (1 μM) was added thereto, and [^14C]L-leucine or alanine (1 μM) was uptaken for 1 min. The mixture was washed with ice-cold uptake buffer (×3). Then, the cells were dissolved in 0.1M NaOH aqueous solution (500 μL), and the protein concentration was measured using the 20 μL of the solution. The uptaken radioactivity was measured using the remaining solution. The measured results were corrected with the protein concentration. The results were evaluated as inhibitory capacity 50%, i.e., IC50, which corresponds to the concentration inhibiting 50% of the cellular uptake of amino acid.

human LAT-2 = human LAT-2 (Homo sapiens (Human), UniProt Q9UHI5); assay: Inhibition of [14C] amino acid uptake into human LAT-2 stably expressing HEK293 cell line (uptake buffer, 1 min); format: cell-based; details: HEK293 human LAT-2 stably expressing cells; Na+-free HBSS pH7.4; [14C]L-leucine or alanine 1 μM, uptake 1 min; read-out: LAT-2 inhibitory activity/IC50
Excerpt: as §1, §2, §3

[2] = system: subcutaneous tumor derived from human pancreatic cancer cell line MIAPaCa-2; assay: Enlargement inhibitory effect on subcutaneous tumor derived from MIAPaCa-2 in nude mice; format: in vivo, nude mice (BALB/cAJc1-nu); details: 1 mg/kg orally once a day for 7 days; female nude mice; tumor volume after 15 to 21 days vs control group
Method: Experimental Example 2 Biological Activity Evaluation Test Enlargement Inhibitory Effect on Subcutaneous Tumor Derived from Human Pancreatic Cancer Cell Line MIAPaCa-2 in Nude Mice
Tumor tissue (0.1 g) derived from MIAPaCa-2 cell was subcutaneously transplanted into female nude mice (6-week old, BALB/cAJc1-nu), which the tumor tissue was formed in different nude mice in advance. 5% MC suspension was prepared from saline and each test compound (1 mg/kg), and it was orally-administered once a day for 7 days from 2 days after transplant. The time-dependent change of the tumor volume was measured by measuring (major axis×minor axis×minor axis)/2 of the tumor volume (weight) according to the method in Sawa, Jun Wu, Takaaki Akaike, and Hiroshi Maeda (2000) Cancer research 60, 666-671.
The tumor volume after 15 to 21 days administration of compound administration group was compared with those of control group, and the tumor growth inhibitory ratio was calculated. The anti-tumor action was evaluated as tumor growth inhibitory ratio.

MIAPaCa-2 cells = assay: Growth inhibitory effect on human pancreatic cancer cell line MIAPaCa-2 (Trypan-Blue method); format: cell-based; details: MIA PaCa-2, 0.2% DMSO, counted every 24 hr for 5 days
Method: 2) Growth Inhibitory Effect on Human Pancreatic Cancer Cell Line MIAPaCa-2
MIAPaCa-2 cells were plated on a 12-well plate at 2000 cells/well, and cultured for 48 hr without addition of test compound. 48 hr after the beginning of the culture, each test compound (0.03, 0.1, 0.3, 1, 3, 6, 10, 30, 100 μM) was added thereto in the presence of 0.2% DMSO. The cells were counted every 24 hr for 5 days, and the inhibitory effect on the MIAPaCa-2 cell growth was observed by Trypan-Blue method. The results were evaluated as inhibitory capacity 50%, i.e., IC50, which corresponds to the concentration inhibiting 50% of the cell growth inhibitory activity.

human LAT-1 [3] = target: T1, human LAT-1; assay: Inhibition of [14C]L-leucine uptake into human LAT-1 stably expressing cells in culture solution (MEM medium, 120 min); format: cell-based; details: MEM medium containing non-essential amino acid, [14C]L-leucine uptake 120 min, read-out: LAT-1 inhibitory activity/IC50
Method: The above-mentioned human LAT-1 stably expressing cells were plated on a 24-well collagen plate at 1.2×10^5 cells/well, and, after 48 hr, the cells were washed (×3) with new culture solution (MEM medium (containing non-essential amino acid)) kept at 37° C. Each test compound (0.1, 1, 3, 10 and 30 μM) was added thereto, and the mixture was kept at 37° C. for 3 min. [^14C]L-leucine was added thereto, and [^14C]L-leucine was uptaken in the culture solution for 120 min. The mixture was washed (×3) with ice-cold buffer (Na^2+-free Hank's balanced salt solution (HBSS) pH7.4). Then, the cells were dissolved in 0.1M NaOH aqueous solution (500 μL), and the protein concentration was measured using the 20 μL of the solution. The uptaken radioactivity was measured using the remaining solution. The measured results were corrected with the protein concentration. The results were evaluated as inhibitory capacity 50%, i.e., IC50, which corresponds to the concentration inhibiting 50% of the cellular uptake of amino acid.

Sequence of human LAT-2 (Q9UHI5 whole entry): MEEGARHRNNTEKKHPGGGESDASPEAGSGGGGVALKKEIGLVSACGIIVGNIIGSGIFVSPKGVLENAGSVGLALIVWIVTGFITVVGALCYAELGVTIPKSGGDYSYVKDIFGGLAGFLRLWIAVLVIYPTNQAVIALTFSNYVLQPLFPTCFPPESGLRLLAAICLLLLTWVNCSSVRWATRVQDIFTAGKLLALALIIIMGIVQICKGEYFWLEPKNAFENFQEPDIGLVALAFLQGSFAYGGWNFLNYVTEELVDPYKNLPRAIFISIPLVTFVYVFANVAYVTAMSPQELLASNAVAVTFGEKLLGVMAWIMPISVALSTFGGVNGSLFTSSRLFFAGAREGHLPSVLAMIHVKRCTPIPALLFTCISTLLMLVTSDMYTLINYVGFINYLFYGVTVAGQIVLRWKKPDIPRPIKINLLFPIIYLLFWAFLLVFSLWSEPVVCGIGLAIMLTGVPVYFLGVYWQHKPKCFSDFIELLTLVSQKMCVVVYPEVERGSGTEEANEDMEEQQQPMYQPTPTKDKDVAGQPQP
Sequence of human LAT-2 (P08195 102-630 partner): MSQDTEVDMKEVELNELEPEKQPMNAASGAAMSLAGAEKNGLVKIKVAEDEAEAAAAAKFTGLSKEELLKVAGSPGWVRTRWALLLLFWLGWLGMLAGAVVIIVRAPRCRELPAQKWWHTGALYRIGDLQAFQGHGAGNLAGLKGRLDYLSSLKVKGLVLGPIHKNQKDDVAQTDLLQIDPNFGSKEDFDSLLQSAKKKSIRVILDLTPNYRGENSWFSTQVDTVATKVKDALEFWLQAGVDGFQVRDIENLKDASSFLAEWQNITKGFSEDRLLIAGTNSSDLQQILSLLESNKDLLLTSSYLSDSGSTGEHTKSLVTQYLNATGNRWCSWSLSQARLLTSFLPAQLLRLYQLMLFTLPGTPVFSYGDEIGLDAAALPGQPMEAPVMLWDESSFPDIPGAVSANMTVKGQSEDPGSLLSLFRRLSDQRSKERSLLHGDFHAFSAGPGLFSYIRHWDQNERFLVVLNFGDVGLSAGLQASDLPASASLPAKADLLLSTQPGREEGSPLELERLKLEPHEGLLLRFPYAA
T1 sequence (Q01650 whole entry): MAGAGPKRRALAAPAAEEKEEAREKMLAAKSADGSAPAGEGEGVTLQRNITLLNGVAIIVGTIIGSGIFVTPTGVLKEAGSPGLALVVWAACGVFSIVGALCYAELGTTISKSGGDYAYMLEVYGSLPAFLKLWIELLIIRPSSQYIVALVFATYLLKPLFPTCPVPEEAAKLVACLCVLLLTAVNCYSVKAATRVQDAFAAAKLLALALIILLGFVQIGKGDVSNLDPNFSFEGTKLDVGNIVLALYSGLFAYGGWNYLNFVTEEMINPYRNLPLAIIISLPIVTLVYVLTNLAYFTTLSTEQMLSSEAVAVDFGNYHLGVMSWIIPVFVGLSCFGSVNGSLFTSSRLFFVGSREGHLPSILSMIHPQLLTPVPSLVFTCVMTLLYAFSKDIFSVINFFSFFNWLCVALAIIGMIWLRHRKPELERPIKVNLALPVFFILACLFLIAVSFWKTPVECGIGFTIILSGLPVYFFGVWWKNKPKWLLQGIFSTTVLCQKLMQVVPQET
T1 sequence (P08195 102-630 partner): as the sequence (P08195 102-630 partner) above

SMILES	IC50 (human LAT-1 [1]) [µM]	IC50 (human LAT-2) [µM]	tumor growth inhibitory ratio [2] [%]	IC50 (MIAPaCa-2 cells) [µM]	IC50 (human LAT-1 [3]) [µM]
NCCCCC(Oc1ccc(C(F)(F)F)cc1)c1ccccc1 (stereo not drawn) [Example 1, 5-phenyl-5-[4-(trifluoromethyl)phenoxy]pentan-1-amine]	57.5	146	–	–	–
NCCCCC(Oc1ccc(C(F)(F)F)cc1)c1ccccc1.O=C(O)/C=C/C(=O)O (stereo not drawn) [Example 2, 5-phenyl-5-[4-(trifluoromethyl)phenoxy]pentan-1-amine fumarate]	–	–	80.5	–	–
NCCCCCC(Oc1ccc(C(F)(F)F)cc1)c1ccccc1 (stereo not drawn) [Example 6, 6-phenyl-6-[4-(trifluoromethyl)phenoxy]hexan-1-amine]	89.1	128	–	–	–
NCCCCC(Oc1ccc(C(F)(F)F)cc1)c1cccc(F)c1 (stereo not drawn) [Example 12]	63	100	–	–	–
CCC(C)c1ccc(OC(CCCCN)c2ccccc2)cc1 (stereo not drawn) [Example 26]	57	253	–	–	–
NCCCCC(Oc1ccc(C(F)(F)F)c(F)c1)c1ccccc1 (stereo not drawn) [Example 29]	76	218	–	–	–
NCCCCC(Oc1ccc(OC(F)(F)F)cc1)c1ccccc1 (stereo not drawn) [Example 44]	39.4	169	–	–	–
NCCCCC(Oc1ccc(C(F)(F)F)cc1)c1cccs1 (stereo not drawn) [Example 48, 5-(thiophen-2-yl)-5-[4-(trifluoromethyl)phenoxy]pentan-1-amine]	56.6	357	–	–	–
NCCCCC(Oc1ccc(OC(F)(F)F)cc1)c1cccs1 (stereo not drawn) [Example 50]	123	313	–	–	–
CCC(C)c1ccc(OC(CCCCN)c2cccs2)cc1 (stereo not drawn) [Example 51]	261	261	–	–	–
NCCCCC(Oc1ccc(OC(F)(F)F)c(F)c1)c1cccs1 (stereo not drawn) [Example 53]	146	258	–	–	–
NCCCCC(Oc1ccc(C(F)(F)F)c(F)c1)c1cccs1 (stereo not drawn) [Example 54]	177	300	–	–	–
NCCCC[C@@H](Oc1ccc(C(F)(F)F)cc1)c1ccccc1 [Example 66, (R)-5-phenyl-5-[4-(trifluoromethyl)phenoxy]pentan-1-amine fumarate]	62.8	194	–	0.17	–
NCCCC[C@H](Oc1ccc(C(F)(F)F)cc1)c1ccccc1 [Example 67, (S)-5-phenyl-5-[4-(trifluoromethyl)phenoxy]pentan-1-amine fumarate]	96.2	207	–	4.16	–
NCCCC[C@@H](Oc1ccc(C(F)(F)F)c(F)c1)c1ccccc1.O=C(O)/C=C/C(=O)O [Example 68, (R)-5-[3-fluoro-4-(trifluoromethyl)phenoxy]-5-phenylpentan-1-amine fumarate]	36.4	156	84.4	0.43	–
NCCCC[C@H](Oc1ccc(C(F)(F)F)c(F)c1)c1ccccc1.O=C(O)/C=C/C(=O)O [Example 69, (S)-5-[3-fluoro-4-(trifluoromethyl)phenoxy]-5-phenylpentan-1-amine fumarate]	69	53	85.5	0.83	–
NCCCC[C@@H](Oc1ccc(OC(F)(F)F)cc1)c1ccccc1.O=C(O)/C=C/C(=O)O [Example 70, (R)-5-phenyl-5-[4-(trifluoromethoxy)phenoxy]pentan-1-amine fumarate]	36.6	131	90.2	0.11	10.4
NCCCC[C@H](Oc1ccc(OC(F)(F)F)cc1)c1ccccc1.O=C(O)/C=C/C(=O)O [Example 71, (S)-5-phenyl-5-[4-(trifluoromethoxy)phenoxy]pentan-1-amine fumarate]	244	131	85.9	3.36	–
NCCCCC(Oc1ccc(C(F)(F)F)c(F)c1)c1ccccc1.O=C(O)/C=C/C(=O)O (stereo not drawn) [Example 72]	–	–	84.4	–	–
NCCCCC(Oc1ccc(OC(F)(F)F)cc1)c1ccccc1.O=C(O)/C=C/C(=O)O (stereo not drawn) [Example 73]	–	–	83.6	–	–

Source: patent US9771316B2, “Phenoxyalkylamine compound” (OSAKA UNIVERSITY, priority 2013, dated 2017)
